Reference: the supplement of paper PMC10307832

Experiments:
Experiment in all cases: relative viability (nuclei count vs DMSO), 5 days (fraction); higher = more cells survive
Ispinesib = compound: Cc1ccc(C(=O)N(CCCN)[C@@H](c2nc3cc(Cl)ccc3c(=O)n2Cc2ccccc2)C(C)C)cc1 [Ispinesib]
Summary of the method: (§1)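 Five library-drug doses spaced by √10 were pinned onto vehicle-anchored 1536-well plates of lung cancer cell lines that had been kept overnight at 37 °C. Cells went 5 days without medium change, then were fixed, permeabilised and Hoechst-stained together, imaged at 4× and counted by MetaXpress. Viability is the ratio of treated-well to vehicle-well nuclei, taken as a median over plates. Plates required control CV below 25% and at least one doubling.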

Linsitinib = compound: C[C@]1(O)C[C@@H](c2nc(-c3ccc4ccc(-c5ccccc5)nc4c3)c3c(N)nccn32)C1 [Linsitinib]
Summary of the method: as §1

Linsitinib + OSI-027 = compound: C[C@]1(O)C[C@@H](c2nc(-c3ccc4ccc(-c5ccccc5)nc4c3)c3c(N)nccn32)C1 [Linsitinib] + COc1cccc2cc(-c3nc([C@H]4CC[C@H](C(=O)O)CC4)n4ncnc(N)c34)[nH]c12 [OSI-027] (partner 0.5 µM)
Summary of the method: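 The day after seeding in 1536-well plates, lung cancer cell lines were treated by pin tool with a single drug, or with a fixed anchor-drug dose together with five library-drug doses (not always all listed) in √10 steps. After 5 days, a combined fix-and-stain solution (final 0.05% Triton X-100, 1% formaldehyde, 1 ug/ml Hoechst) was added. Nuclei counted on 4× images gave relative viability as treated counts over vehicle counts, reported as the median of duplicate plates.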

Cell Line | relative viability (Ispinesib; 0.001 µM) | relative viability (Ispinesib; 0.003162 µM) | relative viability (Ispinesib; 0.01 µM) | relative viability (Ispinesib; 0.03162 µM) | relative viability (Ispinesib; 0.1 µM) | relative viability (Linsitinib; 0.01 µM) | relative viability (Linsitinib; 0.03162 µM) | relative viability (Linsitinib; 0.1 µM) | relative viability (Linsitinib; 1 µM) | relative viability (Linsitinib; 1 µM, anchor plate) | relative viability (Linsitinib + OSI-027; first compound 0.01 µM) | relative viability (Linsitinib + OSI-027; first compound 0.03162 µM) | relative viability (Linsitinib + OSI-027; first compound 0.1 µM) | relative viability (Linsitinib + OSI-027; first compound 1 µM) | relative viability (Linsitinib; 0.3162 µM) | relative viability (Linsitinib + OSI-027; first compound 0.3162 µM)
HOP-62 | 1.06 | 1.07 | 1.26 | 0.967 | 0.338 | 1 | 1.07 | 1.09 | 0.791 | 1.02 | 0.877 | 0.866 | 0.96 | 0.544 | – | –
LC-2-ad | 1.04 | 1.1 | 1.07 | 0.536 | 0.175 | 0.941 | 0.896 | 0.967 | 0.756 | 0.86 | 0.803 | 0.827 | 0.684 | 0.422 | 0.735 | 0.414
NCI-H522 | 0.965 | 1.13 | 1 | 0.815 | 0.48 | 0.969 | 0.927 | 0.838 | 0.872 | – | 0.729 | 0.798 | 0.695 | 0.574 | 0.742 | –
NCI-H322M | 1.13 | 0.945 | 0.914 | 0.472 | 0.58 | 0.954 | 0.993 | 0.95 | 0.701 | 0.95 | 0.547 | 0.47 | 0.531 | 0.384 | 0.814 | 0.361
SK-LU-1 | 1.15 | 1.15 | 1.16 | 0.881 | 0.592 | 1.01 | 0.859 | 1.03 | 0.967 | 0.999 | 0.338 | – | 0.295 | 0.197 | 0.6 | 0.221
NCI-H1734 | 0.971 | 1.01 | 1.09 | 0.612 | 0.262 | 1.06 | 1.04 | 0.88 | 0.721 | 0.862 | 0.737 | 0.469 | 0.634 | 0.293 | 0.674 | 0.504
HCC-44 | 0.974 | 1.07 | 1.04 | 0.883 | 0.186 | 0.964 | 0.967 | 0.96 | 0.659 | 0.702 | 0.503 | 0.41 | 0.465 | 0.232 | 0.668 | 0.181
NCI-H1703 | 1.28 | 0.88 | 0.6 | 0.163 | 0.137 | 0.881 | – | 0.873 | 0.492 | 0.9 | – | – | – | – | 0.577 | –
NCI-H2170 | 1.03 | 1.05 | 1.08 | 0.599 | 0.253 | 1.02 | 0.962 | 0.939 | 1.02 | – | 0.752 | 0.756 | 0.708 | 0.638 | 0.746 | 0.417
NCI-H1395 | 0.95 | 1.06 | 0.854 | 0.44 | 0.354 | 0.935 | 0.79 | 1.03 | 0.893 | 1.17 | 0.571 | 0.637 | 0.612 | 0.545 | 0.806 | 0.622
NCI-H1355 | 1.08 | 1.06 | 1.09 | 0.728 | 0.274 | 1.02 | 0.984 | 0.947 | 0.615 | 0.848 | 0.419 | 0.41 | 0.307 | 0.226 | 0.787 | 0.244
NCI-H1650 | 1.07 | 1.02 | 0.912 | 0.261 | 0.196 | 0.917 | 0.894 | 0.926 | 0.665 | – | 0.576 | 0.598 | 0.527 | 0.222 | 0.477 | 0.242
IA-LM | 1.02 | 1.15 | 1.22 | 0.952 | 0.197 | 1.01 | 0.983 | 0.824 | 0.646 | 0.619 | – | – | – | – | 0.802 | –
NCI-H1666 | 0.997 | 1.05 | 0.953 | 0.79 | 0.508 | 0.975 | 0.983 | 1.04 | 0.747 | 0.878 | 0.772 | 0.957 | 0.759 | 0.434 | 0.755 | 0.476
HCC-78 | 0.943 | 1.04 | 1.08 | 0.533 | 0.791 | 0.794 | 1.03 | 0.816 | 0.699 | 0.538 | 0.377 | 0.379 | 0.31 | 0.347 | 0.868 | 0.377
H3255 | 0.999 | 1.15 | 1.02 | 0.701 | 0.335 | 0.872 | 0.933 | 0.927 | 0.896 | 0.972 | 0.654 | 0.682 | 0.725 | 0.576 | 0.74 | 0.467
NCI-H23 | 0.859 | 1.06 | 1.04 | 0.298 | 0.226 | 1.06 | 0.862 | 0.903 | 0.578 | 0.631 | 0.722 | 0.64 | 0.606 | 0.251 | 0.509 | 0.206
NCI-H1944 | 1.02 | 0.997 | 1.07 | 0.425 | 0.306 | 1.03 | 1.08 | 0.949 | 0.535 | 1.2 | 0.427 | 0.474 | 0.393 | 0.217 | 0.579 | 0.315
NCI-H1651 | 1.06 | 1.05 | 1.06 | 0.927 | 0.549 | 0.969 | 1 | 0.942 | 0.939 | 1.01 | 0.646 | 0.654 | 0.646 | 0.543 | 0.826 | 0.581
EBC-1 | 1.03 | 1.13 | 1.03 | 0.336 | 0.231 | 0.991 | 0.967 | 1.05 | 0.93 | 0.903 | – | – | – | – | 0.778 | –
COR-L 105 | 1.1 | 0.901 | 0.766 | 0.397 | 0.34 | 0.884 | 0.864 | 0.875 | 0.761 | 0.96 | 0.64 | 0.578 | 0.603 | 0.381 | 0.709 | 0.596
RERF-LC-KJ | 1.04 | 0.975 | 1.03 | 0.684 | 0.331 | 1 | 1.01 | 0.949 | 0.871 | 0.878 | 0.617 | 0.602 | 0.553 | 0.251 | 0.682 | 0.298
